Test results: patent US8168667B2 (Galapagos NV, priority 2006, dated 2012)
Like-named read-outs stand apart in the source and are kept apart here.

Biological target: T1, human androgen receptor (hAR) (Homo sapiens, UniProt P10275)
T1 sequence (P10275 1-920): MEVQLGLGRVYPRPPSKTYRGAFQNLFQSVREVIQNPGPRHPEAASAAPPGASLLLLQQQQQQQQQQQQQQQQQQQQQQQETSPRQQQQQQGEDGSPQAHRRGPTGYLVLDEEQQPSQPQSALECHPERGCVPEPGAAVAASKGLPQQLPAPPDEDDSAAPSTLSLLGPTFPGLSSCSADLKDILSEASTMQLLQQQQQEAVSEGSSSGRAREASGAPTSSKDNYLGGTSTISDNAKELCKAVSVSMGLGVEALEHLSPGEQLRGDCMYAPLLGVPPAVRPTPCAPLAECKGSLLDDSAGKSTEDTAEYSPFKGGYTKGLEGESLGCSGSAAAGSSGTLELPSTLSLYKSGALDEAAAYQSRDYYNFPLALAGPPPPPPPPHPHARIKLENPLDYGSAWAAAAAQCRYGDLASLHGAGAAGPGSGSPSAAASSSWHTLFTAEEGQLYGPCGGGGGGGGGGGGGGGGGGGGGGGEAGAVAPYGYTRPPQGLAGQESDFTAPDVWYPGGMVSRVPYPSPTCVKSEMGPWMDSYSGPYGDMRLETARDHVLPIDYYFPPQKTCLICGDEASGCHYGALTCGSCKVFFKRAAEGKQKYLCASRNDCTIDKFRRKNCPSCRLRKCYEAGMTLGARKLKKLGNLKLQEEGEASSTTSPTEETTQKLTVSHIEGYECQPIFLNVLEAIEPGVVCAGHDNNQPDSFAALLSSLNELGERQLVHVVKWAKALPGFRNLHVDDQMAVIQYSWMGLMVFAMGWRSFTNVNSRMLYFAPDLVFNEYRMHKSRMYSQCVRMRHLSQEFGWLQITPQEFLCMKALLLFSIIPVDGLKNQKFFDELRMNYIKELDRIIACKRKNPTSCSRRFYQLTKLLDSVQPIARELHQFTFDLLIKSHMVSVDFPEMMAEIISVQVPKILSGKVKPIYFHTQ
Experiment: Functional response test: hAR transactivation (luciferase reporter) in HALP2 cells
Format: cell-based
Conditions: for EC50: agonism, HALP2 cells (HeLa, hAR + ARE-luciferase), 20 hours at 37° C.
How it was run: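 HALP2 cells are HeLa cells stably transfected with CMV-driven hAR and a probasin ARE-luciferase reporter. They were seeded 24 h ahead, then exposed to compounds for 20 hours at 37° C in phenol red-free DMEM with 5% desteroided serum. Luciferase luminescence was measured after lysis; for antagonist mode, compounds were tested against increasing DHT concentrations.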

[1] = antagonism, concentration which increases the EC50 of the DHT by a factor of 2, Schild regression, HALP2 cells

| SMILES | EC50 [nM] | KSchild (nM) potency [1] [nM] | KSchild (nM) potency [nM] |
| --- | --- | --- | --- |
| CN(C)CCN1C(=O)N(c2ccc([N+](=O)[O-])c(C(F)(F)F)c2)C(=O)C1c1ccc(O)cc1 (centres unmarked) [Example 114] | – | – | 1095.45 |
| N#CCCN1C(=O)N(c2ccc([N+](=O)[O-])cc2)C(=O)C1c1ccc(O)cc1 (centres unmarked) [Example 129] | – | – | 34.64 |
| O=C1C(c2ccc(O)cc2)N(Cc2ccc3c(c2)OCO3)C(=O)N1c1ccc([N+](=O)[O-])c(C(F)(F)F)c1 (centres unmarked) [Example 98] | – | – | 94.87 |
| CC1(c2ccc(O)cc2)C(=O)N(c2ccc(C#N)c(C(F)(F)F)c2)C(=O)N1S(C)(=O)=O (centres unmarked) [Example 243.1, 4-[2,5-dioxo-4-(4-hydroxyphenyl)-4-methyl-3-(methylsulphonyl)imidazolidin-1-yl]-2-trifluoromethylbenzonitrile] | – | – | 80 |
| O=C1C(c2ccc(O)cc2)N(CCCCO)C(=O)N1c1ccc([N+](=O)[O-])c(C(F)(F)F)c1 (centres unmarked) [Example 131] | – | – | 600 |
| O=C1C(c2ccc(O)cc2)N(Cc2ccsc2)C(=O)N1c1ccc([N+](=O)[O-])cc1 (centres unmarked) [Example 53] | – | – | 9.74 |
| CCOC(=O)CCN1C(=O)N(c2ccc([N+](=O)[O-])c(C(F)(F)F)c2)C(=O)C1c1ccc(O)cc1 (centres unmarked) [Example 75] | – | – | 600 |
| C#CCN1C(=O)N(c2ccc(C#N)c(C(F)(F)F)c2)C(=O)[C@@]1(C)c1ccc(OC)cc1 [Example 154.1, (R)-4-[2,5-dioxo-4-(4-methoxyphenyl)-4-methyl-3-(2-propynyl)imidazolidin-1-yl]-2-trifluoromethylbenzonitrile] | – | – | 15 |
| CN1C(=O)N(c2ccc(C#N)c3c2CCCC3)C(=O)C1(C)c1ccc(O)cc1 (centres unmarked) [Example 34, 8-[3,4-dimethyl-2,5-dioxo-4-(4-hydroxyphenyl)imidazolidin-1-yl]-1,2,3,4-tetrahydro-5-naphthonitrile] | – | – | 3.3 |
| O=C1C(c2ccc(O)cc2)N(CCO)C(=O)N1c1ccc(Cl)c(C(F)(F)F)c1 (centres unmarked) [Example 141] | – | – | 17.32 |
| COC(=O)CN1C(=O)N(c2ccc(C#N)c(C(F)(F)F)c2)C(=O)C1(C)c1ccc(O)cc1 (centres unmarked) [Example 227, 4-[2,5-dioxo-4-(4-hydroxyphenyl)-3-[(methoxycarbonyl)methyl]-4-methylimidazolidin-1-yl]-2-trifluoromethylbenzonitrile] | – | – | 3.46 |
| COCCOCN1C(=O)N(c2ccc(C#N)c(C(F)(F)F)c2)C(=O)C1(C)c1ccc(O)cc1 (centres unmarked) [Example 238, 4-[2,5-dioxo-4-(4-hydroxyphenyl)-3-[(2-methoxyethoxy)methyl]-4-methylimidazolidin-1-yl]-2-trifluoromethylbenzonitrile] | – | – | 15 |
| CN1C(=O)N(c2ccc(C#N)c3c2CCC3)C(=O)C1(C)c1ccc(O)cc1 (centres unmarked) [Example 33, 2,3-dihydro-7-[3,4-dimethyl-2,5-dioxo-4-(4-hydroxyphenyl)imidazolidin-1-yl]-4(1H)-indenenitrile] | – | – | 0.78 |
| COc1ccc(C2(C(F)(F)F)C(=O)N(c3ccc(C#N)c(C(F)(F)F)c3)C(=O)N2C)cc1 (centres unmarked) [Example 161, 4-[2,5-dioxo-4-(4-methoxyphenyl)-3-methyl-4-trifluoromethylimidazolidin-1-yl]-2-trifluoromethylbenzonitrile] | – | – | 60 |
| N#CCN1C(=O)N(c2ccc(C#N)c(C(F)(F)F)c2)C(=O)C1c1ccc(O)cc1 (centres unmarked) [Example 90] | – | – | 282.84 |
| CCc1cc(C#N)ccc1N1C(=O)N(C)C(C)(c2ccc(O)cc2)C1=O (centres unmarked) [Example 37, 4-[3,4-dimethyl-2,5-dioxo-4-(4-hydroxyphenyl)imidazolidin-1-yl]-3-ethylbenzonitrile] | – | – | 24.49 |
| CN(C)CCN1C(=O)N(c2ccc(C#N)c(C(F)(F)F)c2)C(=O)C1c1ccc(O)cc1 (centres unmarked) [Example 113] | – | – | 109.54 |

Further lines, with some results ahead:

| EC50 [nM] | KSchild (nM) potency [1] [nM] | SMILES | KSchild (nM) potency [nM] |
| --- | --- | --- | --- |
| 69.3 | 69.28 | O=C1C(c2ccc(O)cc2)N(CCCCO)C(=O)N1c1ccc(Cl)c(Cl)c1 (centres unmarked) [Example 132] | – |
| 245 | 244.95 | O=C1C(c2ccc(O)cc2)N(Cc2ccc3c(c2)OCO3)C(=O)N1c1ccc(Cl)c(C(F)(F)F)c1 (centres unmarked) [Example 101] | – |
| 300 | 300 | CN1C(=O)N(c2ccc(Cl)c3ccccc23)C(=O)C1(C)c1ccc(O)cc1 (centres unmarked) [Example 32, 1-(4-chloronaphthyl)-3,4-dimethyl-4-(4-hydroxyphenyl)imidazolidine-2,5-dione] | – |
| 15 | 15 | O=C1C(c2ccc(O)cc2)N(Cc2ccsc2)C(=O)N1c1ccc(F)c(Cl)c1 (centres unmarked) [Example 51] | – |
| 80 | 80 | CCCN1C(=O)N(c2ccc(F)c(Cl)c2)C(=O)C1c1ccc(O)cc1 (centres unmarked) [Example 11, 1-(3-chloro-4-fluorophenyl)-4-(4-hydroxyphenyl)-3-propylimidazolidine-2,5-dione] | – |
| 69.3 | 69.28 | CCOC(=O)CCN1C(=O)N(c2ccc(F)c(Cl)c2)C(=O)C1c1ccc(O)cc1 (centres unmarked) [Example 79] | – |
| 600 | 600 | O=C1C(c2ccc(O)cc2)N(CCCCO)C(=O)N1c1ccc(F)c(F)c1 (centres unmarked) [Example 133] | – |
| 16.4 | 13.69 | O=C1C(c2ccc(O)cc2)N(Cc2ccsc2)C(=O)N1c1ccc(Cl)c(Cl)c1 (centres unmarked) [Example 10, 1-(3,4-dichlorophenyl)-4-(4-hydroxyphenyl)-3-[(thiophen-3-yl)methyl]imidazolidine-2,5-dione] | – |
| 245 | 244.95 | CN(C)CCN1C(=O)N(c2ccc(F)c(C(F)(F)F)c2)C(=O)C1c1ccc(O)cc1 (centres unmarked) [Example 118] | – |
| 12.3 | 12.25 | CC(=O)OCC#CCN1C(=O)N(c2ccc(Cl)c(Cl)c2)C(=O)C1(C)c1ccc(O)cc1 (centres unmarked) [Example 223, 4-[1-(3,4-dichlorophenyl)-2,5-dioxo-4-methyl-4-(4-hydroxyphenyl)imidazolidin-3-yl]-2-butynyl acetate] | – |
| 245 | 212.13 | N#CCCN1C(=O)N(c2ccc(F)c(Cl)c2)C(=O)C1c1ccc(O)cc1 (centres unmarked) [Example 127] | – |
| 49 | 48.99 | CCOCCCN1C(=O)N(c2ccc(Cl)c(C(F)(F)F)c2)C(=O)C1c1ccc(O)cc1 (centres unmarked) [Example 86] | – |
| 80 | 80 | CCOC(=O)CCN1C(=O)N(c2cccc(C(F)(F)F)c2)C(=O)C1c1ccc(O)cc1 (centres unmarked) [Example 80] | – |
| 693 | 692.82 | N#CCN1C(=O)N(c2cccc(C(F)(F)F)c2)C(=O)C1c1ccc(O)cc1 (centres unmarked) [Example 96] | – |
| 4 | 4 | CN1C(=O)N(c2ccc(Cl)c(Cl)c2)C(=O)C1c1cccc(O)c1 (centres unmarked) [Example 152, 1-(3,4-dichlorophenyl)-4-(3-hydroxyphenyl)-3-methylimidazolidine-2,5-dione] | – |
| 69.3 | 42.43 | CN1C(=O)N(c2ccc(F)c(Cl)c2)C(=O)C1c1ccc(O)cc1 (centres unmarked) [Example 49] | – |
| 2000 | 2000 | CN(C)CCN1C(=O)N(c2ccc(F)c(F)c2)C(=O)C1c1ccc(O)cc1 (centres unmarked) [Example 116] | – |
| 42.4 | 42.43 | C#CCN1C(=O)N(c2cccc(C(F)(F)F)c2)C(=O)C1c1ccc(O)cc1 (centres unmarked) [Example 72] | – |
